Drawing on patent US9744222B2, “Peptide for vaccine” (Circassia Limited, priority 2007, dated 2017), this text covers Solubility test for 18 compounds.

Where a SMILES comes first, the peptide text is derived from it.

This data set is described as follows: Solubility pre-screen of peptides. The note with it: pre-screened for solubility in an aqueous, acidic milieu; YES/NO.
Procedure: Methods The assay employed is a competitive MHC class II binding assay, wherein each peptide is analysed for its ability to displace a known control binder from each of the human MHC class II allotypes investigated.
Also shown is the solubility status of the peptide at the highest concentrations in the aqueous solution of the binding assay. The value illustrates the lowest concentration at which an insoluble white precipitate is seen.
Consider `CC[C@H](C)[C@H](N)C(=O)N[C@@H](CC(=O)O)C(=O)N[C@@H](CC(C)C)C(=O)N[C@@H](CCCNC(=N)N)C(=O)N[C@@H](CCC(N)=O)C(=O)N[C@@H](CCSC)C(=O)N[C@@H](CCCNC(=N)N)C(=O)N[C@H](C(=O)N[C@H](C(=O)N[C@H](C(=O)N1CCC[C@H]1C(=O)N[C@H](C(=O)N[C@@H](CCCNC(=N)N)C(=O)O)[C@@H](C)CC)[C@@H](C)O)C(C)C)[C@@H](C)O` [HDM01] (H-IDLRQMRTVTPIR-OH; N-terminus and C-terminus assumed), for which the Solubility test result is on record as “YES”. As to `CC[C@H](C)[C@H](NC(=O)[C@@H]1CCCN1C(=O)[C@@H](NC(=O)[C@@H](NC(=O)[C@@H](NC(=O)[C@@H](N)CCCNC(=N)N)[C@@H](C)O)C(C)C)[C@@H](C)O)C(=O)N[C@@H](CCCNC(=N)N)C(=O)N[C@@H](CCSC)C(=O)N[C@@H](CCC(N)=O)C(=O)NCC(=O)NCC(=O)N[C@@H](CS)C(=O)NCC(=O)O` [HDM02] (H-RTVTPIRMQGGCG-OH; N-terminus and C-terminus assumed), the Solubility test result is “YES”. Regarding `CC(C)C[C@H](NC(=O)[C@H](CC(=O)O)NC(=O)[C@H](CC(C)C)NC(=O)[C@H](CO)NC(=O)[C@H](CCC(N)=O)NC(=O)[C@H](CC(N)=O)NC(=O)[C@@H](N)CCCNC(=N)N)C(=O)N[C@@H](C)C(=O)N[C@@H](CCC(=O)O)C(=O)N[C@@H](CCC(N)=O)C(=O)N[C@@H](CCC(=O)O)C(=O)N[C@@H](CC(C)C)C(=O)N[C@H](C(=O)N[C@@H](CC(=O)O)C(=O)N[C@@H](CS)C(=O)N[C@@H](C)C(=O)N[C@@H](CO)C(=O)N[C@@H](CCC(N)=O)C(=O)N[C@@H](Cc1c[nH]cn1)C(=O)O)C(C)C` [HDM03C] (H-RNQSLDLAEQELVDCASQH-OH; N-terminus and C-terminus assumed), the Solubility test entry is listed as “YES”. With `CC[C@H](C)[C@H](NC(=O)[C@H](Cc1ccc(O)cc1)NC(=O)[C@@H](N)CCC(=O)O)C(=O)N[C@@H](CCC(N)=O)C(=O)N[C@@H](Cc1c[nH]cn1)C(=O)N[C@@H](CC(N)=O)C(=O)NCC(=O)N[C@H](C(=O)N[C@H](C(=O)N[C@@H](CCC(N)=O)C(=O)N[C@@H](CCC(=O)O)C(=O)N[C@@H](CO)C(=O)N[C@@H](Cc1ccc(O)cc1)C(=O)O)C(C)C)C(C)C` [HDM05] (H-EYIQHNGVVQESY-OH; N-terminus and C-terminus assumed), the Solubility test entry is listed as “YES”. In the case of `CC(C)[C@H](NC(=O)[C@H](Cc1ccc(O)cc1)NC(=O)[C@@H](N)CCCNC(=N)N)C(=O)N[C@@H](C)C(=O)N[C@@H](CCCNC(=N)N)C(=O)N[C@@H](CCC(=O)O)C(=O)N[C@@H](CCC(N)=O)C(=O)N[C@@H](CO)C(=O)N[C@@H](CS)C(=O)N[C@@H](CCCNC(=N)N)C(=O)N[C@@H](CCCNC(=N)N)C(=O)N1CCC[C@H]1C(=O)N[C@@H](CC(N)=O)C(=O)O` [HDM06] (H-RYVAREQSCRRPN-OH; N-terminus and C-terminus assumed), the Solubility test entry was “YES”.

Turning to `CC[C@H](C)[C@H](NC(=O)[C@H](CCCCN)NC(=O)[C@H](CC(N)=O)NC(=O)[C@@H](NC(=O)[C@H](CC(N)=O)NC(=O)[C@@H]1CCCN1)C(C)C)C(=O)N[C@@H](CCCNC(=N)N)C(=O)N[C@@H](CCC(=O)O)C(=O)N[C@@H](C)C(=O)N[C@@H](CC(C)C)C(=O)N[C@@H](C)C(=O)N[C@@H](CCC(N)=O)C(=O)N[C@H](C(=O)O)[C@@H](C)O` [HDM07] (H-PNVNKIREALAQT-OH; N-terminus and C-terminus assumed), the Solubility test result is given as “YES”. In the case of `CC[C@H](C)[C@H](NC(=O)[C@H](CCCCN)NC(=O)[C@@H](N)CC(N)=O)C(=O)N[C@@H](CCCNC(=N)N)C(=O)N[C@@H](CCC(=O)O)C(=O)N[C@@H](C)C(=O)N[C@@H](CC(C)C)C(=O)N[C@@H](C)C(=O)N[C@@H](CCC(N)=O)C(=O)N[C@H](C(=O)N[C@@H](Cc1c[nH]cn1)C(=O)N[C@@H](CO)C(=O)N[C@@H](C)C(=O)O)[C@@H](C)O` [HDM08] (H-NKIREALAQTHSA-OH; N-terminus and C-terminus assumed), the Solubility test entry is listed as “YES”. Then `CC[C@H](C)[C@H](NC(=O)[C@@H](NC(=O)[C@H](C)NC(=O)[C@@H](NC(=O)[C@H](C)NC(=O)[C@H](CO)NC(=O)[C@H](Cc1c[nH]cn1)NC(=O)[C@@H](NC(=O)[C@H](CCC(N)=O)NC(=O)[C@H](C)NC(=O)[C@H](CC(C)C)NC(=O)[C@H](C)NC(=O)[C@H](CCC(=O)O)NC(=O)[C@@H](N)CCCNC(=N)N)[C@@H](C)O)[C@@H](C)CC)C(C)C)C(=O)O` [HDM09A] (H-REALAQTHSAIAVI-OH; N-terminus and C-terminus assumed), with “YES”. As to `CC[C@H](C)[C@H](N)C(=O)NCC(=O)N[C@H](C(=O)N[C@@H](CCCCN)C(=O)N[C@@H](CC(=O)O)C(=O)N[C@@H](CC(C)C)C(=O)N[C@@H](CC(=O)O)C(=O)N[C@@H](C)C(=O)N[C@@H](Cc1ccccc1)C(=O)N[C@@H](CCCNC(=N)N)C(=O)N[C@@H](Cc1c[nH]cn1)C(=O)N[C@@H](Cc1ccc(O)cc1)C(=O)N[C@@H](CC(=O)O)C(=O)O)[C@@H](C)CC` [HDM11] (H-IGIKDLDAFRHYD-OH; N-terminus and C-terminus assumed), the Solubility test entry was “YES”. For the compound `CC(C)C[C@H](NC(=O)[C@H](CC(=O)O)NC(=O)[C@@H](N)CCCCN)C(=O)N[C@@H](CC(=O)O)C(=O)N[C@@H](C)C(=O)N[C@@H](Cc1ccccc1)C(=O)N[C@@H](CCCNC(=N)N)C(=O)N[C@@H](Cc1c[nH]cn1)C(=O)N[C@@H](Cc1ccc(O)cc1)C(=O)N[C@@H](CC(=O)O)C(=O)NCC(=O)N[C@@H](CCCNC(=N)N)C(=O)N[C@H](C(=O)O)[C@@H](C)O` [HDM12] (H-KDLDAFRHYDGRT-OH; N-terminus and C-terminus assumed), the Solubility test entry is listed as “YES”. The value for `C[C@@H](O)[C@H](NC(=O)[C@H](CC(=O)O)NC(=O)[C@H](Cc1c[nH]c2ccccc12)NC(=O)[C@H](CO)NC(=O)[C@H](CC(N)=O)NC(=O)[C@@H](N)CCCNC(=N)N)C(=O)N[C@@H](CC(N)=O)C(=O)N[C@@H](Cc1c[nH]c2ccccc12)C(=O)NCC(=O)N[C@@H](CC(=O)O)C(=O)N[C@@H](CC(N)=O)C(=O)NCC(=O)N[C@@H](Cc1ccc(O)cc1)C(=O)NCC(=O)O` [HDM16A] (H-RNSWDTNWGDNGYG-OH; N-terminus and C-terminus assumed) was “YES”; that for `CC(C)C[C@H](NC(=O)[C@H](CC(=O)O)NC(=O)[C@H](CC(C)C)NC(=O)[C@H](CCC(=O)O)NC(=O)[C@H](CO)NC(=O)[C@@H]1CCCN1C(=O)[C@@H](NC(=O)[C@H](CC(N)=O)NC(=O)[C@@H](NC(=O)[C@H](CO)NC(=O)[C@@H](N)CC(N)=O)C(C)C)C(C)C)C(=O)N[C@@H](CCCNC(=N)N)C(=O)N[C@@H](CO)C(=O)N[C@@H](CC(C)C)C(=O)N[C@@H](CCCNC(=N)N)C(=O)N[C@H](C(=O)O)[C@@H](C)O` [HDM17] (H-NSVNVPSELDLRSLRT-OH; N-terminus and C-terminus assumed) was “YES”.

On to `CC[C@H](C)[C@H](NC(=O)[C@H](CCC(=O)O)NC(=O)[C@H](Cc1c[nH]cn1)NC(=O)[C@H](CC(N)=O)NC(=O)[C@H](C)NC(=O)[C@H](CS)NC(=O)[C@H](CC(=O)O)NC(=O)[C@H](CCCCN)NC(=O)[C@@H](NC(=O)[C@H](CC(=O)O)NC(=O)[C@@H](NC(=O)[C@H](CCC(N)=O)NC(=O)[C@@H](N)CC(=O)O)C(C)C)C(C)C)C(=O)N[C@@H](CCCCN)C(=O)N[C@@H](CCCCN)C(=O)O` [HDM19] (H-DQVDVKDCANHEIKK-OH; N-terminus and C-terminus assumed), for which the Solubility test result is “YES”.

As to `CC(C)C[C@H](NC(=O)[C@H](CCC(N)=O)NC(=O)[C@H](Cc1ccccc1)NC(=O)[C@@H]1CCCN1C(=O)[C@@H](N)CCCCN)C(=O)N[C@@H](CCC(=O)O)C(=O)N[C@@H](C)C(=O)N[C@H](C(=O)N[C@@H](Cc1ccccc1)C(=O)N[C@@H](CCC(=O)O)C(=O)N[C@@H](C)C(=O)N[C@@H](CC(N)=O)C(=O)N[C@@H](CCC(N)=O)C(=O)N[C@@H](CC(N)=O)C(=O)N[C@H](C(=O)N[C@@H](CCCCN)C(=O)O)[C@@H](C)O)C(C)C` [HDM21A] (H-KPFQLEAVFEANQNTK-OH; N-terminus and C-terminus assumed), the Solubility test result is given as “YES”.

In the case of `CC(C)C[C@H](NC(=O)[C@H](CCC(N)=O)NC(=O)[C@H](Cc1ccccc1)NC(=O)[C@@H]1CCCN1C(=O)[C@H](CCCCN)NC(=O)CNC(=O)[C@@H](N)CCCNC(=N)N)C(=O)N[C@@H](CCC(=O)O)C(=O)N[C@@H](C)C(=O)N[C@H](C(=O)N[C@@H](Cc1ccccc1)C(=O)N[C@@H](CCC(=O)O)C(=O)N[C@@H](C)C(=O)N[C@@H](CC(N)=O)C(=O)N[C@@H](CCC(N)=O)C(=O)N[C@@H](CC(N)=O)C(=O)N[C@H](C(=O)O)[C@@H](C)O)C(C)C` [HDM21B] (H-RGKPFQLEAVFEANQNT-OH; N-terminus and C-terminus assumed), the Solubility test result is reported as “YES”.

Take `CC(C)C[C@H](NC(=O)[C@H](CCC(N)=O)NC(=O)[C@H](Cc1ccccc1)NC(=O)[C@@H]1CCCN1C(=O)[C@@H](N)CCCCN)C(=O)N[C@@H](CCC(=O)O)C(=O)N[C@@H](C)C(=O)N[C@H](C(=O)N[C@@H](Cc1ccccc1)C(=O)N[C@@H](CCC(=O)O)C(=O)N[C@@H](C)C(=O)N[C@@H](CC(N)=O)C(=O)N[C@@H](CCC(N)=O)C(=O)N[C@@H](CC(N)=O)C(=O)N[C@H](C(=O)O)[C@@H](C)O)C(C)C` [HDM21] (H-KPFQLEAVFEANQNT-OH; N-terminus and C-terminus assumed): the Solubility test result is “YES”. `CC(C)[C@H](NC(=O)[C@H](C)NC(=O)[C@@H](N)CCC(=O)O)C(=O)N[C@@H](Cc1ccccc1)C(=O)N[C@@H](CCC(=O)O)C(=O)N[C@@H](C)C(=O)N[C@@H](CC(N)=O)C(=O)N[C@@H](CCC(N)=O)C(=O)N[C@@H](CC(N)=O)C(=O)N[C@H](C(=O)N[C@@H](CCCCN)C(=O)N[C@H](C(=O)N[C@@H](C)C(=O)N[C@@H](CCCCN)C(=O)O)[C@@H](C)O)[C@@H](C)O` [HDM22A] (H-EAVFEANQNTKTAK-OH; N-terminus and C-terminus assumed): the Solubility test entry was “YES”. Turning to `CC[C@H](C)[C@H](NC(=O)[C@H](CCC(=O)O)NC(=O)[C@@H](NC(=O)[C@H](CCCCN)NC(=O)[C@H](C)N)[C@@H](C)CC)C(=O)N[C@@H](CCCCN)C(=O)N[C@@H](C)C(=O)N[C@@H](CO)C(=O)N[C@@H](CC(C)C)C(=O)N[C@@H](CC(=O)O)C(=O)NCC(=O)N[C@@H](CC(C)C)C(=O)N[C@@H](CCC(=O)O)C(=O)O` [HDM27] (H-AKIEIKASLDGLE-OH; N-terminus and C-terminus assumed), the Solubility test entry is “YES”.
